Data as given in patent US20230045196A1, “METHODS OF CONTROLLING OR PREVENTING INFESTATION OF PEANUT PLANTS BY PHYTOPATHOGENIC MICROORGANISMS” (SYNGENTA CROP PROTECTION AG, priority 2019, published 2023).

System: Cercospora arachidicola
Experiment: Peanut field trial, in-furrow soil application at planting, leafspot disease severity
Type: in vivo, Cercospora arachidicola on peanut (Arachis hypogaea)
Conditions: 63 days after planting, peanut Ga 09b, COMPOUND 1 SC450 200 g AI/ha, Fluopyram SC500 250 g AI/ha
Procedure: A peanut field trial was carried out in […], Georgia, USA, to evaluate the efficacy of different compounds against the leafspot disease Cercospora arachidicola. Plot borders (peanuts) were planted in early May and left untreated until there was significant leafspot infection on the borders.
The peanuts were then planted in July and treatments applied in-furrow at the same day. The disease occurred mid of September and an assessment on disease severity (% infected area) was done 63 days after planting.
Pest Severity, 63 Days after Planting

O=C(NCCc1ncc(C(F)(F)F)cc1Cl)c1ccccc1C(F)(F)F [Fluopyram]
% efficacy based on pest severity: 52.64%
% efficacy based on pest severity (listed as commercial standard compound 2): 53%
Pest severity (%) (% infected area): 15,A %
